# Measured values from ChEMBL document CHEMBL1201862, “PubChem BioAssay data set” (2004).
#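 The compound was tested at five concentrations on cells cultured in 96-well plates, with a 48-hour exposure period. GI50: concentration for 50% inhibition of growth.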 Active and inactive are the calls of the source. Cut-off read from the data, not from the text of the source: active = GI50 up to about 1.1 µM and inactive = higher. Starred links: 1 amine or outer side, 2 acyl side, 3 side chain; linkers in the order of their positions; H or OH if unused. Non-standard residues stand in square brackets, D forms with d. Residues, ends and D or L forms follow the SMILES beside them. X35 = C=CCC(O[*:1])C(=O)[*:2]; NMeV = CN[CH](C(=O)O)C(C)C; NMeA = CN[CH](C)C(=O)O; βAla = NCCC(=O)O
# What was measured:
# Experiment in all cases: inhibition of tumour cell growth, NCI panel, 48 h
# ACHN = system: ACHN
# CAKI-1 = system: CAKI-1
# COLO 205 = system: COLO 205
# HCT-15 = system: HCT-15
# HOP-92 = system: HOP-92
# M14 = system: M14
# MDA-MB-231 = system: MDA-MB-231
# MDA-MB-435 = system: MDA-MB-435
# NCI-H226 = system: NCI-H226
# OVCAR-3 = system: OVCAR-3
# OVCAR-4 = system: OVCAR-4
# SK-OV-3 = system: SK-OV-3
# SNB-19 = system: SNB-19
# SNB-75 = system: SNB-75
# UACC-257 = system: UACC-257
# A498 = system: A498
# Malme-3M = system: Malme-3M
# NCI-H522 = system: NCI-H522
# RXF 393 = system: RXF 393
Compound,GI50 (ACHN),GI50 (CAKI-1),GI50 (COLO 205),GI50 (HCT-15) [µM],GI50 (HOP-92),GI50 (M14),GI50 (MDA-MB-231),GI50 (MDA-MB-435),GI50 (NCI-H226),GI50 (OVCAR-3),GI50 (OVCAR-4),GI50 (SK-OV-3),GI50 (SNB-19),GI50 (SNB-75),GI50 (UACC-257),GI50 (A498),GI50 (Malme-3M),GI50 (NCI-H522),GI50 (RXF 393)
CC1(C)CC(=O)C(=CNc2nc(-c3ccc(Br)cc3)cs2)C(=O)C1,37 µM (inactive),24.9 µM (inactive),31.2 µM (inactive),21.2,33 µM (inactive),20.5 µM (inactive),31.8 µM (inactive),25.6 µM (inactive),45.3 µM (inactive),22.3 µM (inactive),37.5 µM (inactive),83 µM (inactive),33.5 µM (inactive),6.35 µM (inactive),18.5 µM (inactive),,,,
CC(C)/C(Cl)=N\OC(=O)Nc1ccc(S(N)(=O)=O)cc1,13.9 µM (inactive),17.3 µM (inactive),1.98 µM (inactive),16.6,5.25 µM (inactive),8.13 µM (inactive),12.7 µM (inactive),,21 µM (inactive),14.3 µM (inactive),25 µM (inactive),17.7 µM (inactive),> 53.2 µM (inactive),9.33 µM (inactive),17.4 µM (inactive),17 µM (inactive),4.59 µM (inactive),1.21 µM (inactive),12.6 µM (inactive)
O=[N+]([O-])c1cccc2nc3ccccc3c(NCCCCCNc3c4ccccc4nc4cccc([N+](=O)[O-])c34)c12,0.0162 µM (active),0.0476 µM (active),0.0246 µM (active),0.0171,0.0199 µM (active),0.0607 µM (active),0.0269 µM (active),,0.245 µM (active),0.075 µM (active),0.153 µM (active),0.19 µM (active),0.116 µM (active),0.197 µM (active),0.139 µM (active),0.111 µM (active),0.129 µM (active),0.0859 µM (active),0.0302 µM (active)
CC1N(O)C(c2ccccc2)C(c2ccccc2)=[N+]1[O-] (centres undefined),> 100 µM (inactive),> 100 µM (inactive),> 100 µM (inactive),> 100,> 100 µM (inactive),> 100 µM (inactive),> 100 µM (inactive),,> 100 µM (inactive),> 100 µM (inactive),> 100 µM (inactive),> 100 µM (inactive),> 100 µM (inactive),84.3 µM (inactive),> 100 µM (inactive),> 100 µM (inactive),> 100 µM (inactive),,> 100 µM (inactive)
CC(C)N1CC2CC(CN(C(=O)c3ccc(Cl)cc3)C2)C1,> 100 µM (inactive),> 100 µM (inactive),> 100 µM (inactive),> 100,> 100 µM (inactive),> 100 µM (inactive),,,> 100 µM (inactive),> 100 µM (inactive),> 100 µM (inactive),> 100 µM (inactive),> 100 µM (inactive),> 100 µM (inactive),> 100 µM (inactive),> 100 µM (inactive),> 100 µM (inactive),> 100 µM (inactive),> 100 µM (inactive)
CC(C)[C@H]1C(=O)O[B@-](F)(c2ccccc2)/[N+]1=C\N(C)C,> 100 µM (inactive),,> 100 µM (inactive),> 100,> 100 µM (inactive),> 100 µM (inactive),> 100 µM (inactive),> 100 µM (inactive),> 100 µM (inactive),> 100 µM (inactive),30.1 µM (inactive),> 100 µM (inactive),> 100 µM (inactive),> 100 µM (inactive),> 100 µM (inactive),,> 100 µM (inactive),,
C=CCC1OC(=O)CCNC(=O)C(C)N(C)C(=O)C(C(C)C)N(C)C(=O)C(C(C)CC)NC(=O)C2CCCN2C1=O (centres undefined) (cyclo([X35]PI[NMeV][NMeA][βAla]); configuration not given here),18.4 µM (inactive),81.5 µM (inactive),> 100 µM (inactive),23.2,21.7 µM (inactive),30.5 µM (inactive),1.62 µM (inactive),4.22 µM (inactive),,2.16 µM (inactive),66.8 µM (inactive),,> 100 µM (inactive),1.25 µM (inactive),9.44 µM (inactive),,,16 µM (inactive),
